The values below come from US8440710B2, “HSL inhibitors useful in the treatment of diabetes” (Hoffmann-La Roche Inc., priority 2009, dated 2013).

The target of this experiment is T1, human HSL (Homo sapiens, UniProt Q05469).
T1 construct: generate a full length human HSL ORF with a 3′-His6 tag; made in house; host or cells: High 5 insect cells (baculovirus, pFast-BAC)
T1 sequence (Q05469 1-1076): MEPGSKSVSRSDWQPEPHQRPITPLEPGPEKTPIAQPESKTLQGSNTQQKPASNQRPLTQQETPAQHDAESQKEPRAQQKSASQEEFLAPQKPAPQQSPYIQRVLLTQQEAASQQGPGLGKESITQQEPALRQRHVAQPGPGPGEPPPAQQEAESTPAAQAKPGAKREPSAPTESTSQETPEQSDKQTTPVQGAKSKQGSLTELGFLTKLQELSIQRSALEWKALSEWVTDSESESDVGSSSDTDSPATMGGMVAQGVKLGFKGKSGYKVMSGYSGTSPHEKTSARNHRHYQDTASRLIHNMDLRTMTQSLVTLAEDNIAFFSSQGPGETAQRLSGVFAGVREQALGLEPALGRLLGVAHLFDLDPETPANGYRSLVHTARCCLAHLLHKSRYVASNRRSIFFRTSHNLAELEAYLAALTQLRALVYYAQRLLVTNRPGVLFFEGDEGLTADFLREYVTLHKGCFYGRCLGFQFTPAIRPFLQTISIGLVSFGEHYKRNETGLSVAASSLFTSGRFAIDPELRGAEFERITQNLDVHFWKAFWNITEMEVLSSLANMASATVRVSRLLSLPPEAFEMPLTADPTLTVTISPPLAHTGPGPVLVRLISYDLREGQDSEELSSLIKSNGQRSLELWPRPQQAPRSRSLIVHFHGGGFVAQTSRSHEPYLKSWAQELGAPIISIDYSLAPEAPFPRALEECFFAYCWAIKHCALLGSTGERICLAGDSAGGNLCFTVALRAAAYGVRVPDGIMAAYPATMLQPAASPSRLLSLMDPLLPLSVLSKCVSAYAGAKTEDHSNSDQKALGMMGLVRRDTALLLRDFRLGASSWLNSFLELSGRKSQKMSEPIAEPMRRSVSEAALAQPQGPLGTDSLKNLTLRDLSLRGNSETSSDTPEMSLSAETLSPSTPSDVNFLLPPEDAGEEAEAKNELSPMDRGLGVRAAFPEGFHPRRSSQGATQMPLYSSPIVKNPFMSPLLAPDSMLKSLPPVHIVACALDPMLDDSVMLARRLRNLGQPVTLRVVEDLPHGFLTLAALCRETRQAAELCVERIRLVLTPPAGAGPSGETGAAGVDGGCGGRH
Briefly: Human Hormone-Sensitive Lipase (HSL) enzyme inhibition assay (colorimetric, DMPT substrate). The format is biochemical. The conditions noted are these: human full length HSL-His6, 2,3-dimercapto-1-propanol tributyrate substrate, 37° C. 20 minutes, absorbance at 405 nm; read-out: HSL hum IC50. Here is the method:
Production of Human Full Length Hormone Sensitive Lipase-His^6:
1) Cloning: cDNA was prepared from commercial human brain polyA+ RNA and used as a template in overlapping PCR to generate a full length human HSL ORF with a 3′-His6 tag. This full length insert was cloned into the pFast-BAC vector and the DNA-sequence of several single clones was verified. DNA from a correct full length clone with the 3′His6 tag was used to transform the E. coli strain DH10BAC. Resulting bacmid DNA was used to generate a titered baculovirus stock for protein generation. The sequence of the encoded HSL conforms to Swissprot entry Q05469, with the additional C-terminal His6-tag. 2) Protein purification: Culture: 5.5 L, High 5 cells expressing human full length HSL-His^6, 48 hr., containing 25 μM E-64. Cell count: […], 90% viable. Cells were thawed. On ice, cells were suspended in Base Buffer containing 10% glycerol, 25 mM Tris-Cl, 300 mM NaCl, 10 mM imidazole, 10 mM 2-mercaptoethanol, 2 μg pepstatin/ml, 2 μg leupeptin/ml, 2 μg antipain/ml, pH 8.0 at 4° C. in a final volume of 475 ml with 3.75×10^7 cells/ml. […] was done at 3×30 sec., Lubrol PX was added to 0.2% final concentration followed by stirring for 15 min. at 4° C. and centrifugation at 25 k×g, 60 min., 4° C. Soluble proteins were mixed with 60 ml of pre-washed and equilibrated Ni-NTA Agarose (Qiagen 30210) followed by tumbling end-over-end, 45 min., 4° C., centrifugation 1000 rpm 5 min and letting resin settle 5 min. Supernatant was removed, the resin washed in the centrifuge vessel using 5 volumes of Base Buffer containing 0.2% Lubrol PX. Centrifugation was done again, then the supernatant discarded. The resin was poured onto a 0.8 μm membrane in a disposable filter unit (Nalge 450-0080), and washed with 5 volumes of Base Buffer containing 0.2% Lubrol PX. It was then washed with 30 volumes of Base Buffer containing 60 mM imidazole pH 7.5 at 4° C. The protein was eluated with 5 volumes of 25 mM Tris-Cl, 300 mM NaCl, 200 mM imidazole, 10 mM 2-mercaptoethanol, pH 7.5 at 4° C. by tumbling resin with buffer end-over-end, 30 min., 4° C. The resin was captured on a 0.2 μm membrane disposable filter unit (Millipore SCGP U02 RE) and the eluate collected in the reservoir. The eluate was concentrated using a 30 k MWCO centrifugal filter device (Sartorius Vivascience Vivacell 100, VC1022), to 20 ml. It was then dialyzed overnight at 4° C., two times against 2 L of 10% glycerol, 25 mM Tris-Cl, 300 mM NaCl, 0.2 mM EDTA, 0.2 mM DTT, pH 7.5 at 4° C. The protein was filtered using a 0.22 μm disposable filter unit (Millipore SCGP00525). The protein concentration was calculated from absorbance at 280 nm, using 280=0.67 cm-1 mg-1. Yield was 235 mg, total. The protein was stored at −80° C. Human Hormone-Sensitive Lipase (HSL) Enzyme Inhibition Assay:
HSL enzyme activity was measured by a colorimetric assay using 2,3-dimercapto-1-propanol tributyrate (Aldrich, St. Louis, Mo.) as a substrate. Typically, 1.5 mM 2,3-dimercapto-1-propanol tributyrate (DMPT) in 100 mM MOPS, pH 7.2, 0.2 mg/ml fatty acid-free BSA was prepared by sonication at 4° C. to homogenous suspension. Test compounds (2 mM stock in DMSO) were diluted 3 fold in series in DMSO. Compound solutions were diluted 24 fold in 1.5 mM DMPT containing solution and 18 ul per well was added to 384-well microplates (Corning Costar). Twelve microliters per well of human HSL (15 ug/ml) was added and the reaction mixture was incubated at 37° C. for 20 minutes. Six microliters of 12 mM dithio-bis-(2-nitrobenzoic acid) (DTNB) in DMSO plus 1.2% SDS and 0.6% Triton X-100 were added and the mixture was incubated at room temperature for 15 minutes. Product production was monitored by reading absorbance at 405 nm on an Envision Reader (PerkinElmer Life and Analytical Sciences, Shelton, Conn.).
Usually IC50 stands for the concentration needed to halve the response being measured. `CC[C@]1(O)CC[C@]2(CCN(c3ccc(O[C@@H](C)C(F)(F)F)nc3)C2=O)CC1` [Example 171, (5α,8α)-8-Ethyl-8-hydroxy-2-[6-((S)-2,2,2-trifluoro-1-methyl-ethoxy)-pyridin-3-yl]-2-aza-spiro[4.5]decan-1-one]: the IC50 was determined as 30 nM.

`CC(C)OC[C@]1(O)CC[C@]2(CCN(c3ccc([C@@H](O)C(F)(F)F)cc3)C2=O)CC1` [Example 159, (5α,8α)-8-Hydroxy-8-isopropoxymethyl-2-[4-((R)-2,2,2-trifluoro-1-hydroxy-ethyl)-phenyl]-2-aza-spiro[4.5]decan-1-one]: the IC50 is 20 nM.

Regarding `COCCO[C@H]1CC[C@@]2(CCN(c3ccc(OC(F)(F)F)cc3)C2=O)CC1` [Example 23, (5α,8β)-8-(2-Methoxy-ethoxy)-2-(4-trifluoromethoxy-phenyl)-2-aza-spiro[4.5]decan-1-one], the IC50 was 190 nM.

For `O=C1N(c2ccc(OC(F)(F)F)cc2)CC[C@]12CC[C@@H](OCc1ccccc1)CC2` [Example 9, (5α,8β)-8-Benzyloxy-2-(4-trifluoromethoxy-phenyl)-2-aza-spiro[4.5]decan-1-one], the IC50 came out at 190 nM.

As for `CC(C)COC[C@]1(O)CC[C@]2(CCN(c3ccc(OCC(F)(F)F)cc3)C2=O)CC1` [Example 246, (5α,8α)-8-Hydroxy-8-isobutoxymethyl-2-[4-(2,2,2-trifluoro-ethoxy)-phenyl]-2-aza-spiro[4.5]decan-1-one], the IC50 is 640 nM.

For the compound `CC(C)C[C@]1(O)CC[C@]2(CCN(c3ccc(OC(C)C)cc3)C2=O)CC1` [Example 199, (5α,8α)-8-hydroxy-8-isobutyl-2-(4-isopropoxyphenyl)-2-aza-spiro[4.5]decan-1-one], the IC50 is 10 nM.

For `COc1ccc(N2CCC3(CC=CCC3)C2=O)cc1` (stereo not shown) [Example 47, 2-(4-Methoxy-phenyl)-2-aza-spiro[4.5]dec-7-en-1-one], the IC50 was 6750 nM.

Regarding `COCCC[C@]1(O)CC[C@]2(CCN(c3ccc(CC(F)(F)F)cc3)C2=O)CC1` [Example 93, (5α,8α)-8-Hydroxy-8-(3-methoxy-propyl)-2-[4-(2,2,2-trifluoro-ethyl)-phenyl]-2-aza-spiro[4.5]decan-1-one], the IC50 amounted to 20 nM.

As for `O=C1N(c2ccc(OCC(F)(F)F)cc2)CC[C@]12CC[C@](O)(COc1ccccc1)CC2` [Example 239, (5α,8β)-8-Hydroxy-8-phenoxymethyl-2-[4-(2,2,2-trifluoro-ethoxy)-phenyl]-2-aza-spiro[4.5]decan-1-one], the IC50 was 140 nM.

On to `CCc1ccc(N2CC[C@]3(CC[C@@H](OC(=O)NCc4cccc(F)c4)CC3)C2=O)cc1` [Example 7, (3-Fluoro-benzyl)-carbamic acid [(5α,8β)-2-(4-ethyl-phenyl)-1-oxo-2-aza-spiro[4.5]dec-8-yl]ester], for which the IC50 came out at 70 nM.

For `O=C1N(c2ccc([C@@H](O)C(F)(F)F)cc2)CC[C@]12CC[C@@](O)(CCC(F)(F)F)CC2` [Example 194, (5α,8α)-8-hydroxy-2-(4-((R)-2,2,2-trifluoro-1-hydroxyethyl)phenyl)-8-(3,3,3-trifluoropropyl)-2-aza-spiro[4.5]decan-1-one], the IC50 amounted to 20 nM.

Consider `C=C(C)[C@]1(O)CC[C@]2(CCN(c3ccc(CCOC)cc3)C2=O)CC1` [Example 127, (5α,8α)-8-Hydroxy-8-isopropenyl-2-[4-(2-methoxy-ethyl)-phenyl]-2-aza-spiro[4.5]decan-1-one], for which the IC50 is 120 nM.

On to `O=C1N(c2ccc(OC(F)(F)F)cc2)CC[C@]12CC[C@H](Sc1ccccc1)CC2` [Example 52, (5α,8α)-8-Phenylsulfanyl-2-(4-trifluoromethoxy-phenyl)-2-aza-spiro[4.5]decan-1-one], for which the IC50 worked out at 2270 nM.

Turning to `CCC[C@]1(O)CC[C@]2(CCN(c3ccc([C@@H](O)C(F)(F)F)cc3)C2=O)CC1` [Example 133b, (5α,8α)-8-Hydroxy-8-propyl-2-[4-((R)-2,2,2-trifluoro-1-hydroxy-ethyl)-phenyl]-2-aza-spiro[4.5]decan-1-one], the IC50 stood at 30 nM.

As for `O=C1N(c2ccc(OCC(F)(F)F)cc2)CC[C@]12CC[C@@H](O)CC2` [Example 85, (5α,8β)-8-Hydroxy-2-[4-(2,2,2-trifluoro-ethoxy)-phenyl]-2-aza-spiro[4.5]decan-1-one], the IC50 came out at 2290 nM.

On to `CCCOC[C@]1(O)CC[C@]2(CCN(c3ccc(OCC(F)(F)F)cc3)C2=O)CC1` [Example 236, (5α,8α)-8-Hydroxy-8-propoxymethyl-2-[4-(2,2,2-trifluoro-ethoxy)-phenyl]-2-aza-spiro[4.5]decan-1-one], for which the IC50 was 20 nM.

For `CCc1ccc(N2CC[C@]3(CC[C@@](O)(COCCOC)CC3)C2=O)cc1` [Example 229, (5α,8α)-2-(4-Ethyl-phenyl)-8-hydroxy-8-(2-methoxy-ethoxymethyl)-2-aza-spiro[4.5]decan-1-one], the IC50 is 130 nM.

In the case of `CC[C@]1(O)CC[C@]2(CCN(c3ccc(O[C@H](C)C(F)(F)F)nc3)C2=O)CC1` [Example 175, (5α,8α)-8-Ethyl-8-hydroxy-2-[6-((R)-2,2,2-trifluoro-1-methyl-ethoxy)-pyridin-3-yl]-2-aza-spiro[4.5]decan-1-one], the IC50 stood at 40 nM.

For the compound `O=C1N(c2ccc(OCC(F)(F)F)cc2)CC[C@]12CC[C@](O)(COCC(F)(F)F)CC2` [Example 232, (5α,8β)-8-Hydroxy-8-(2,2,2-trifluoro-ethoxymethyl)-2-[4-(2,2,2-trifluoro-ethoxy)-phenyl]-2-aza-spiro[4.5]decan-1-one], the concentration for half-maximal inhibition (IC50) was found to be 290 nM.
